# Test results reported in patent publication US20120028837A1, “RAPID SCREEN FOR REPRODUCTIVE TOXICANTS” (PRESIDENT AND FELLOWS OF HARVARD COLLEGE, priority 2010, published 2012).
# System: C. elegans germline
# Experiment: ATL-1 and p-CHK1 immunostaining (DNA damage checkpoint)
# Format: in vivo
# Excerpt: ATL-1, the C. elegans homologue of mammalian ATM and Rad3-related protein (ATR), accumulates to sites of persistent DSBs during meiosis, and together with CLK-2, acts as a sensor of germ-cell DNA damage which leads to phosphorylation of the checkpoint kinase CHK1 and ultimately apoptosis. To further examine the progression of DSB repair, the levels of ATL-1 and phosphorylated CHK1 (p-CHK1) were monitored throughout the gonad following exposure to BPA.
smiles,measurement,setting,value
"CC(C)(c1ccc(O)cc1)c1ccc(O)cc1 [BPA, Bisphenol A]","elevated RAD-51, ATL-1 or p-CHK1 staining in the mitotic germline nuclei",BPA exposure,not observed
same,levels of ATL-1 signal on pachytene nuclei,BPA treated vs control,significant increase
same,levels of p-CHK1 signal on pachytene nuclei,BPA treated vs control,significant increase
